ChEMBL document CHEMBL4325829, “Design and Synthesis of Tubulin and Histone Deacetylase Inhibitor Based on iso-Combretastatin A-4” (J Med Chem, 2018)
Blank lines part the entries; values can stand above or below the compound they belong to. Calls of active or inactive are those of the source. The rule behind the calls is not given here.

Key:
[1] = Inhibition of sheep brain tubulin polymerization assessed as reduction in rate of microtubule assembly by DAPI-fluorescence based assay; set-up: species or system Ovis aries
HCT-116 = test: Antiproliferative activity against human HCT116 cells after 72 hrs by MTS assay; assay type: functional
Histone deacetylase 8 = molecular target: T1, Histone deacetylase 8 (Homo sapiens, UniProt Q9BY41); test: Inhibition of human recombinant HDAC8 after 30 mins using fluorogenic substrate by fluorimetric assay; settings: read-out: IC50
T1 sequence (Q9BY41 whole entry): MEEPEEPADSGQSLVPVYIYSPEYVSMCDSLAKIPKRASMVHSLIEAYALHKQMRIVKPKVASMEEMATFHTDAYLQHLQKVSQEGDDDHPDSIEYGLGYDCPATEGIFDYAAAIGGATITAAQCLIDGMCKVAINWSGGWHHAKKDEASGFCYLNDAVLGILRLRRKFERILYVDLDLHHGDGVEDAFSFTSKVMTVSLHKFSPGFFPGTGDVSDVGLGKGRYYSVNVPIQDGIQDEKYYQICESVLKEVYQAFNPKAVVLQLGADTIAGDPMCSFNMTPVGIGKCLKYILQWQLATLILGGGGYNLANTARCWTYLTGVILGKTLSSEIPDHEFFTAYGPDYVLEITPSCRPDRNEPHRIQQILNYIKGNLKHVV

[2] = molecular target: T2, Protein deacetylase HDAC6 (Homo sapiens, UniProt Q9UBN7)
T2 sequence (Q9UBN7 whole entry): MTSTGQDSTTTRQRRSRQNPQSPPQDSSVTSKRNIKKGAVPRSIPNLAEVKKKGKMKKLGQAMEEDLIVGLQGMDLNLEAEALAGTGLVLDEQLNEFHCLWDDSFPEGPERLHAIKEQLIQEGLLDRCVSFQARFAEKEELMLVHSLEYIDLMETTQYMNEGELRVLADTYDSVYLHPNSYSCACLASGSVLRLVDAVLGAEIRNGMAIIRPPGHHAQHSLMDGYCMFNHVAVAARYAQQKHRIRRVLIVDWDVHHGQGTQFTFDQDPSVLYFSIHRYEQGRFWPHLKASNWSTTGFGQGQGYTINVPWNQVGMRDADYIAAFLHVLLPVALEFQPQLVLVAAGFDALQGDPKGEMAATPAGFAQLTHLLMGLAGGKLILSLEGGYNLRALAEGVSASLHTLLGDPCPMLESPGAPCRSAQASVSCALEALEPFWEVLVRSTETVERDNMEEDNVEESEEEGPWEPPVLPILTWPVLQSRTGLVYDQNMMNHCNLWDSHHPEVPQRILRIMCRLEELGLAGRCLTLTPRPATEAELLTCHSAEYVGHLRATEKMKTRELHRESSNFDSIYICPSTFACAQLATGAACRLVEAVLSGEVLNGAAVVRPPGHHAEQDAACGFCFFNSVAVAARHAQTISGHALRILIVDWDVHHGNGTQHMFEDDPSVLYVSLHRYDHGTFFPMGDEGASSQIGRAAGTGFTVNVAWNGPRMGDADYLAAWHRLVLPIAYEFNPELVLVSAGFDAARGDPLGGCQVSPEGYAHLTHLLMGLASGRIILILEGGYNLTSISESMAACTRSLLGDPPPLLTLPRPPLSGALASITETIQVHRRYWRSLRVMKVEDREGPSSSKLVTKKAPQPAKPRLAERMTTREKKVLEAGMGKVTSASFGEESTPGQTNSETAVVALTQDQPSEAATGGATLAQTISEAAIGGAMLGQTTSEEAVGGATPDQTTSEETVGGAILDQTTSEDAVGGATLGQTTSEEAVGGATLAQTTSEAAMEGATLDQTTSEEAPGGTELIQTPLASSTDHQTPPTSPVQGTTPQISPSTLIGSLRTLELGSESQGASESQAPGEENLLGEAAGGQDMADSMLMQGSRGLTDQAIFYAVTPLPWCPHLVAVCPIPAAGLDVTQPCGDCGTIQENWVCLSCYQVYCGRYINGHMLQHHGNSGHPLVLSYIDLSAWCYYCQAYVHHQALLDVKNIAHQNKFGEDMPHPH
Description: Inhibition of human recombinant HDAC6 after 30 mins using fluorogenic substrate by fluorimetric assay

MCF7 = test: Antiproliferative activity against human MCF7 cells after 72 hrs by MTS assay; assay type: functional
PC-3 = test: Antiproliferative activity against human PC3 cells after 72 hrs by MTS assay; assay type: functional
[3] = molecular target: T3, Histone deacetylase 8 (Homo sapiens) (UniProt Q9BY41); test: Inhibition of HDAC8 in human HT-29 cells assessed as acetylated SMC3 levels at 25 uM after 6 hrs by Western blot analysis relative to control; assay type: cell-based
T3 sequence (whole entry): T1 sequence (Q9BY41 whole entry)

HT-29 [4] = test: Antiproliferative activity against human HT-29 cells after 72 hrs by MTS assay; assay type: functional
[5] = molecular target: T4, Protein deacetylase HDAC6 (Homo sapiens) (UniProt Q9UBN7); test: Inhibition of HDAC6 in human HT-29 cells assessed as acetylated alpha-tubulin levels at 25 uM after 6 hrs by Western blot analysis relative to control; assay type: cell-based
T4 sequence (whole entry): T2 sequence (Q9UBN7 whole entry)

[6] = molecular target: T4, Protein deacetylase HDAC6 (Homo sapiens); test: Inhibition of HDAC6 in human HT-29 cells assessed as acetylated alpha-tubulin levels at 25 uM after 24 hrs by Western blot analysis relative to control; assay type: cell-based
U-87 MG = test: Antiproliferative activity against human U87 cells after 72 hrs by MTS assay; assay type: functional, U-87MG ATCC
[7] = molecular target: T3, Histone deacetylase 8 (Homo sapiens); test: Inhibition of HDAC8 in human HT-29 cells assessed as acetylated SMC3 levels at 25 uM after 24 hrs by Western blot analysis relative to control; assay type: cell-based
K562 = test: Antiproliferative activity against human K562 cells after 72 hrs by MTS assay; assay type: functional
A549 = test: Antiproliferative activity against human A549 cells after 72 hrs by MTS assay; assay type: functional
K-562R = test: Antiproliferative activity against human K562R cells after 72 hrs by MTS assay; assay type: functional
MIA PaCa-2 = test: Antiproliferative activity against human MIAPaCa2 cells after 72 hrs by MTS assay; assay type: functional
BXPC-3 = test: Antiproliferative activity against human BxPC3 cells after 72 hrs by MTS assay; assay type: functional
Ovis aries = species: Ovis aries; test: Inhibition of sheep brain tubulin polymerization assessed as reduction in rate of microtubule assembly at 200 uM by DAPI-fluorescence based assay
HT-29 [8] = test: Antiproliferative activity against human HT-29 cells in presence of isoCA-4 after 72 hrs by MTS assay relative to control; assay type: functional, cell-based; settings: HT-29, 72 h
HT-29 [9] = test: Antiproliferative activity against human HT-29 cells assessed as cell viability after 72 hrs by MTS assay relative to control; assay type: functional

SMILES: C=C(c1cc(OC)c(OC)c(OC)c1)c1ccc(OC)c(/C=C/C(=O)NO)n1
- IC50 [1]: 7500 nM
- GI50 (HCT-116; Homo sapiens, HCT-116, 72 h): 37.2 nM

SMILES: C=C(c1cc(OC)c(OC)c(OC)c1)c1ccc2c(c1)cc(/C=C/C(=O)NO)n2C
- IC50 (Histone deacetylase 8): 6200 nM
- IC50 [1]: 5400 nM
- IC50 [2]: 3800 nM
- GI50 (HCT-116; Homo sapiens, HCT-116, 72 h): 20 nM

SMILES: C=C(c1ccc(OC)c(C#CCCC(=O)NO)c1)c1cc(OC)c(OC)c(OC)c1
- IC50 [1]: 1700 nM
- GI50 (HCT-116; Homo sapiens, HCT-116, 72 h): 8 nM

SMILES: COc1ccc(Cn2ccc3ccc(C(=O)NO)cc32)cc1
- GI50 (MCF7; Homo sapiens, MCF7, 72 h): 2970 nM
- GI50 (PC-3; Homo sapiens, PC-3, 72 h): 2660 nM
- fold change (FC) [3]: 3.1
- GI50 (HT-29 [4]; Homo sapiens, HT-29, 72 h): > 10000 nM
- fold change (FC) [5]: 0.5
- fold change (FC) [6]: 1.7
- GI50 (U-87 MG; Homo sapiens, U-87 MG, 72 h): > 15000 nM
- fold change (FC) [7]: 4.8
- GI50 (K562; Homo sapiens, K562, 72 h): 2010 nM
- GI50 (A549; Homo sapiens, A549, 72 h): > 20000 nM
- GI50 (K-562R; Homo sapiens, K-562R, 72 h): 2200 nM
- GI50 (MIA PaCa-2; Homo sapiens, MIA PaCa-2, 72 h): > 20000 nM
- GI50 (BXPC-3; Homo sapiens, BXPC-3, 72 h): > 20000 nM
- GI50 (HCT-116; Homo sapiens, HCT-116, 72 h): 2640 nM

SMILES: C=C(c1cc(OC)c(OC)c(OC)c1)c1ccc(OC)c(C(=O)Nc2ccccc2N)c1
- inhibition (Ovis aries): inactive
- GI50 (HCT-116; Homo sapiens, HCT-116, 72 h): 340 nM

SMILES: CC(/C=C/C(=O)NO)=C\[C@@H](C)C(=O)c1ccc(N(C)C)cc1 [TRICHOSTATIN]
- GI50 (MCF7): 45 nM
- GI50 (PC-3): 387 nM
- GI50 (HT-29 [4]): 34.1 nM
- IC50 (HT-29 [8]): 3.8 nM
- GI50 (U-87 MG): 1040 nM
- GI50 (K562): 262 nM
- GI50 (A549): 80 nM
- GI50 (K-562R): 88 nM
- Activity (HT-29 [9]): <20%
- GI50 (MIA PaCa-2): 200 nM
- GI50 (BXPC-3): 100 nM
- GI50 (HCT-116): 35 nM

SMILES: C=C(c1ccc(OC)c(C#CCCCC(=O)NO)c1)c1cc(OC)c(OC)c(OC)c1
- IC50 [1]: 18000 nM
- GI50 (HCT-116; Homo sapiens, HCT-116, 72 h): 372 nM

Second part, the compound after the results:

- IC50 [1]: 5000 nM
- GI50 (HCT-116; Homo sapiens, HCT-116, 72 h): 150 nM
SMILES: C=C(c1ccc(OC)c(OCC(=O)OCC)c1)c1cc(OC)c(OC)c(OC)c1

- IC50 [1]: 4000 nM
- GI50 (HCT-116; Homo sapiens, HCT-116, 72 h): 85 nM
SMILES: C=C(c1ccc(OC)c(/C=C/C(=O)OC)c1)c1cc(OC)c(OC)c(OC)c1

- IC50 [1]: 2400 nM
- GI50 (HCT-116; Homo sapiens, HCT-116, 72 h): 22 nM
SMILES: C=C(c1ccc(OC)c(OCC(=O)NO)c1)c1cc(OC)c(OC)c(OC)c1

- inhibition (Ovis aries): inactive
- GI50 (HCT-116; Homo sapiens, HCT-116, 72 h): 1000 nM
SMILES: C=C(c1ccc(OC)c(OCCCC(=O)OCC)c1)c1cc(OC)c(OC)c(OC)c1
